According to patent publication US10947252B2, “Inhibitors of KEAP1-Nrf2 protein-protein interaction” (Janssen Pharmaceutica NV, priority 2018, dated 2021):

Test system: Glo-Response ARE-luc2P HEK293 cell line
Assay: ARE luciferase reporter cell-based assay;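 also: luciferase signal tracks Nrf2 activation of the ARE once compounds disrupt KEAP1-Nrf2 binding, read with One-Glo reagent, DMSO serving as low control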
Settings: 24 hours, average of results obtained

Q: For `Cc1cnc2c(c1)S(=O)(=O)N(Cc1cc([C@@H](c3ccn4c(C(F)(F)F)nnc4c3C)C(C)(C)C(=O)O)ccc1C)CC1(CCOCC1)O2` (single isomer, unassigned) [Example 407, (*S)-2,2-dimethyl-3-(4-methyl-3-((8′-methyl-1′,1′-dioxido-2,3,5,6-tetrahydrospiro[pyran-4,4′-pyrido[2,3-b][1,4,5]oxathiazepin]-2′(3′H)-yl)methyl)phenyl)-3-(8-methyl-3-(trifluoromethyl)-[1,2,4]triazolo[4,3-a]pyridin-7-yl)propanoic Acid], which EC50 is on record?
A: 1.47 nM

Same assay, conditions: Homo sapiens, HEK293, 24 h, average of results obtained

Q: With `Cc1cc2cc([C@H](c3ccc(C)c(CN4CC5(CC5)Oc5nc(OCCN6CCCCC6)c(C)cc5S4(=O)=O)c3)C(C)(C)C(=O)O)n(C)c2nn1` (single isomer, unassigned) [Example 351, (*R)-3-(3,7-Dimethyl-7H-pyrrolo[2,3-c]pyridazine-6-yl)-2,2-dimethyl-3-(4-methyl-3-((8′-methyl-1′,1′-dioxido-7′-(2-(piperidine-1-yl)-ethoxy)spiro[cyclopropane-1,4′-pyrido[2,3-b][1,4,5]oxathiazepin]-2′,(3′H)-yl)methyl)phenyl)propanoic Acid] as the compound, how does the EC50 read?
A: 836 nM

Q: For `Cc1cc2cc([C@@H](c3ccc(C)c(CN4CC5(CC5)Oc5nc(OCCN6CCCC6)c(C)cc5S4(=O)=O)c3)C(C)(C)C(=O)O)n(C)c2nn1` (single isomer, unassigned) [Example 352, (*S)-3-(3,7-Dimethyl-7H-pyrrolo[2,3-c]pyridazine-6-yl)-2,2-dimethyl-3-(4-methyl-3-((8′-methyl-1′,1′-dioxido-7′-(2-(pyrrolidin-1-yl)-ethoxy)spiro[cyclopropane-1,4′-pyrido[2,3-b][1,4,5]oxathiazepin]-2′,(3′H)-yl)methyl)phenyl)propanoic Acid], which EC50 is on record?
A: 43.7 nM

Q: For `Cc1cc2cc([C@H](c3ccc(C)c(CN4CC5(CC5)Oc5nc(OCCN6CCCC6)c(C)cc5S4(=O)=O)c3)C(C)(C)C(=O)O)n(C)c2nn1` (single isomer, unassigned) [Example 353, (*R)-3-(3,7-Dimethyl-7H-pyrrolo[2,3-c]pyridazine-6-yl)-2,2-dimethyl-3-(4-methyl-3-((8′-methyl-1′,1′-dioxido-7′-(2-(pyrrolidin-1-yl)-ethoxy)spiro[cyclopropane-1,4′-pyrido[2,3-b][1,4,5]oxathiazepin]-2′-(3′H)-yl)methyl)phenyl)propanoic Acid], which EC50 is on record?
A: 1410 nM

Q: `Cc1ccc([C@H](CC(=O)O)c2ccn3c(C(F)(F)F)nnc3c2C)cc1CN1CC2(CCOCC2)Oc2ncc(F)cc2S1(=O)=O` (single isomer, unassigned) [Example 414, (*S)-3-(3-((8′-fluoro-1′,1′-dioxido-2,3,5,6-tetrahydrospiro[pyran-4,4′-pyrido[2,3-b][1,4,5]oxathiazepin]-2′(3′H)-yl)methyl)-4-methylphenyl)-3-(8-methyl-3-(trifluoromethyl)-[1,2,4]triazolo[4,3-a]pyridin-7-yl)propanoic Acid] was tested. Which EC50 did it give?
A: 11 nM

Q: With `Cc1ccc([C@H](CC(=O)O)c2ccn3c(C(F)(F)F)nnc3c2C)cc1CN1CC2(CCOCC2)Oc2ccc(F)cc2S1(=O)=O` (single isomer, unassigned) [Example 415, (*S)-3-(3-((8-fluoro-1,1-dioxido-2′,3′,5′,6′-tetrahydrospiro[benzo[b][1,4,5]oxathiazepine-4,4′-pyran]-2(3H)-yl)methyl)-4-methylphenyl)-3-(8-methyl-3-(trifluoromethyl)-[1,2,4]triazolo[4,3-a]pyridin-7-yl)propanoic Acid] as the compound, how does the EC50 read?
A: 5.1 nM

Q: For `Cc1ccc([C@@H](c2ccn3c(C(F)(F)F)nnc3c2C)C(C)C(=O)O)cc1CN1CC2(CCOCC2)Oc2ccc(F)cc2S1(=O)=O` (single isomer, unassigned) [Example 416, (3S*)-3-(3-((8-fluoro-1,1-dioxido-2′,3′,5′,6′-tetrahydrospiro[benzo[b][1,4,5]oxathiazepine-4,4′-pyran]-2(3H)-yl)methyl)-4-methylphenyl)-2-methyl-3-(8-methyl-3-(trifluoromethyl)-[1,2,4]triazolo[4,3-a]pyridin-7-yl)propanoic Acid], which EC50 is on record?
A: 2.53 nM

Q: `CCn1nnc2c(C)c([C@H](c3ccc(C)c(CN4CC5(CCOCC5)Oc5ncc(C)cc5S4(=O)=O)c3)C(C)(C)C(=O)O)ccc21` (single isomer, unassigned) [Example 421, (*R)-3-(1-ethyl-4-methyl-1H-benzo[d][1,2,3]triazol-5-yl)-2,2-dimethyl-3-(4-methyl-3-((8′-methyl-1′,1′-dioxido-2,3,5,6-tetrahydrospiro[pyran-4,4′-pyrido[2,3-b][1,4,5]oxathiazepin]-2′(3′H)-yl)methyl)phenyl)propanoic Acid] was tested. Which EC50 did it give?
A: 0.24 nM

Q: `Cc1ccc([C@@H](c2cc(OC(F)F)c3c(c2)nnn3C)C(C)(C)C(=O)O)cc1CN1CC2(CCOCC2)Oc2ncccc2S1(=O)=O` (single isomer, unassigned) [Example 426] was tested. Which EC50 did it give?
A: 0.9 nM

Q: `Cc1ccc([C@H](c2cc(OC(F)F)c3c(c2)nnn3C)C(C)(C)C(=O)O)cc1CN1CC2(CCOCC2)Oc2ncccc2S1(=O)=O` (single isomer, unassigned) [Example 427, (R*)-3-(7-(difluoromethoxy)-1-methyl-1H-benzo[d][1,2,3]triazol-5-yl)-3-(3-((1′,1′-dioxido-2,3,5,6-tetrahydrospiro[pyran-4,4′-pyrido[2,3-b][1,4,5]oxathiazepin]-2′(3′H)-yl)methyl)-4-methylphenyl)-2,2-dimethylpropanoic Acid] was tested. Which EC50 did it give?
A: 293 nM

Q: `Cc1ccc([C@H](c2ccc3c(nnn3CC3CC3)c2C)C(C)(C)C(=O)O)cc1CN1CC2(CCOCC2)Oc2ncccc2S1(=O)=O` (single isomer, unassigned) [Example 429, (R*)-3-(1-(cyclopropylmethyl)-4-methyl-1H-benzo[d][1,2,3]triazol-5-yl)-3-(3-((1′,1′-dioxido-2,3,5,6-tetrahydrospiro[pyran-4,4′-pyrido[2,3-b][1,4,5]oxathiazepin]-2′(3′H)-yl)methyl)-4-methylphenyl)-2,2-dimethylpropanoic Acid] was tested. Which EC50 did it give?
A: 17800 nM

Q: How did the EC50 turn out when `Cc1ccc([C@H](CC(=O)O)c2ccn3c(C(F)F)nnc3c2C)cc1CN1CC2(CCOCC2)Oc2ccc(F)cc2S1(=O)=O` (single isomer, unassigned) [Example 524, (*S)-3-(3-(Difluoromethyl)-8-methyl-[1,2,4]triazolo[4,3-a]pyridin-7-yl)-3-(3-((8-fluoro-1,1-dioxido-2′,3′,5′,6′-tetrahydrospiro[benzo[b][1,4,5]oxathiazepine-4,4′-pyran]-2(3H)-yl)methyl)-4-methylphenyl)propanoic Acid] was run?
A: 19.7 nM

Q: For `Cc1ccc([C@H](CC(=O)O)c2ccn3c(C(F)F)nnc3c2C)cc1CN1CC2(CC2)Oc2ncc(Cl)cc2S1(=O)=O` (single isomer, unassigned) [Example 530, (*S)-3-(3-((8′-Chloro-1′,1′-dioxidospiro[cyclopropane-1,4′-pyrido[2,3-b][1,4,5]oxathiazepin]-2′(3′H)-yl)methyl)-4-methylphenyl)-3-(3-(difluoromethyl)-8-methyl-[1,2,4]triazolo[4,3-a]pyridin-7-yl)propanoic Acid], which EC50 is on record?
A: 10.2 nM
